These results are taken from ChEMBL document CHEMBL5579817, “Recent advances in targeting histone H3 lysine 36 methyltransferases for cancer therapy” (Eur J Med Chem, 2024).

Bounds are passed on as bounds.

The IC50 is the point on the concentration scale where inhibition reaches its midpoint. What is called GI50 is the concentration at which growth is held to half of that of the control. High values mean lower sensitivity of the cells, low ones greater sensitivity of the cells. The term DC50 denotes the midpoint of the concentration-degradation curve. In general, Kd refers to the constant that tells how readily two partners part at equilibrium. As usually defined, the bioavailability is the share of a dose that reaches the circulation, judged against a reference dose that is usually intravenous. A higher bioavailability goes with good availability.

Data set [1] can be described thus: Antiproliferative activity against […] assessed as reduction in cell growth incubated for 48 hrs by MTT assay. The format is functional, cell-based. The following applies: RN 22, 48 h.
For data set [2], the target named is T1, Histone-lysine N-methyltransferase NSD2 (Homo sapiens, UniProt O96028).
T1 sequence (O96028 whole entry): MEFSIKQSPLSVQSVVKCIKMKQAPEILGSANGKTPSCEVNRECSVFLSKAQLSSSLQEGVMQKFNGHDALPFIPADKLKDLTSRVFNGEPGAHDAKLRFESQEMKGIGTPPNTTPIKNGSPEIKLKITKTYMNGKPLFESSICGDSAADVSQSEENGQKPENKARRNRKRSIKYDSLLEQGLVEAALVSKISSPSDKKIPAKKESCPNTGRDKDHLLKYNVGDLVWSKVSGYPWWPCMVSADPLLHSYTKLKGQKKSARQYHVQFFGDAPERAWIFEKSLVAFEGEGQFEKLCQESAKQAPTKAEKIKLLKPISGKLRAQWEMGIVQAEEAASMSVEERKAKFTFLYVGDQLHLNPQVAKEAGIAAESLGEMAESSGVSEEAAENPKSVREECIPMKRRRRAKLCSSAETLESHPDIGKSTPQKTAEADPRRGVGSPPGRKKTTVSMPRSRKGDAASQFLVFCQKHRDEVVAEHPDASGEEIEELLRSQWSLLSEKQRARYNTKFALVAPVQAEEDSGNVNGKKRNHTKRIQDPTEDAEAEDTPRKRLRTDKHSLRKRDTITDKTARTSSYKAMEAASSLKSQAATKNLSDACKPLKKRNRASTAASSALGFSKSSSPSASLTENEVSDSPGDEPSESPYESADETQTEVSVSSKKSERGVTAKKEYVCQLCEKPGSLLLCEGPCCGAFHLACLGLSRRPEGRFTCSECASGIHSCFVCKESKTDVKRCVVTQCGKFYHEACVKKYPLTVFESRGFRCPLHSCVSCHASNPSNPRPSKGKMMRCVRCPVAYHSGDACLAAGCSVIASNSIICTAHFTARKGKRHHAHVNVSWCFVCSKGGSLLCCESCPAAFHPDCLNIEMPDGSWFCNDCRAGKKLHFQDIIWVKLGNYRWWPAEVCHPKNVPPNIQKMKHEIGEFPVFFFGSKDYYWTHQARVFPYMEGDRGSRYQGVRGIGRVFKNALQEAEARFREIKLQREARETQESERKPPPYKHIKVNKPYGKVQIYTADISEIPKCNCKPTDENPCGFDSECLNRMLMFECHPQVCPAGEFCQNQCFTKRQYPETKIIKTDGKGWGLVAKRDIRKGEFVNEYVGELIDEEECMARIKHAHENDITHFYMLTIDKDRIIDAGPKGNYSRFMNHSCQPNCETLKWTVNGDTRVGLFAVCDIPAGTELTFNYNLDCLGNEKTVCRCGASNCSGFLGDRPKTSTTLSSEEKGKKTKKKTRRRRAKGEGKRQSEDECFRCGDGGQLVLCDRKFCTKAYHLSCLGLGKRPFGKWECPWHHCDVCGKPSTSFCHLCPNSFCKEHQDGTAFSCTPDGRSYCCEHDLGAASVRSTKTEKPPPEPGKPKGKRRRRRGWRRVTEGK
Put plainly: Inhibition of NSD2 SET domain (unknown origin) extracted from Escherichia coli BL21.

The target of data set [3] is T1, Histone-lysine N-methyltransferase NSD2. Put plainly: Inhibition of MMSET (953 to 1240 residues) (unknown origin) by Alpha Screen assay.
For another data set, the system named is MOLM-13. Put plainly: Growth inhibition of human MOLM-13 cells. Format: functional.
Another data set has as its system KOPN-8. Put plainly: Growth inhibition of human KOPN-8 cells. The format is functional.
A further data set has as its system MV4-11. Put plainly: Growth inhibition of human MV4-11 cells after 7 days by WST-8 assay. The format is functional. The conditions noted are these: MV4-11, 168 h, time 7 day. For orientation: Formazan colour is commonly taken as a measure of viable cells.
Data set [4] deals with Protein cereblon/Histone-lysine N-methyltransferase NSD2 (Homo sapiens, UniProt O96028+Q96SW2). Put plainly: PROTAC activity at CRBN/NSD2 in human VCaP cells assessed as induction of NSD2 degradation at 2 uM incubated for 24 hrs by immunoblot analysis. The format is cell-based.
Chain of Protein cereblon/Histone-lysine N-methyltransferase NSD2 (Q96SW2 whole entry, one chain of several): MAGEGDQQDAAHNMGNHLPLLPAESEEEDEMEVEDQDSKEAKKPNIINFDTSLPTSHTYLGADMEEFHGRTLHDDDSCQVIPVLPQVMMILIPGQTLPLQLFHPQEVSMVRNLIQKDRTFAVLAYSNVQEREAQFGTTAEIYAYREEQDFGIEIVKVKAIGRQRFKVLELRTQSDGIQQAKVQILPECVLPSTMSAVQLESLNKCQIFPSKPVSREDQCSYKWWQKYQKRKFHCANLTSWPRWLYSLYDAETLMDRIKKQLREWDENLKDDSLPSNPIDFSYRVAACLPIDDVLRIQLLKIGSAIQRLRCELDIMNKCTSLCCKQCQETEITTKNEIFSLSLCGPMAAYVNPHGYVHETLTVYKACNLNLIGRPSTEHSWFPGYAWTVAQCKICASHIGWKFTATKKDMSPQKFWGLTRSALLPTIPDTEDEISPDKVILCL
For data set [5], the target named is von Hippel-Lindau disease tumor suppressor/Histone-lysine N-methyltransferase NSD3 (Homo sapiens, UniProt Q9BZ95+P40337). Put plainly: PROTAC activity at VHL/NSD3 […] domain in human MOLM-13 cells assessed as […] measured after 48 hrs by immunoblotting analysis. Format: cell-based. On the technique in general: A western blot detects proteins with antibodies after separation by electrophoresis.
Chain of von Hippel-Lindau disease tumor suppressor/Histone-lysine N-methyltransferase NSD3 (Q9BZ95 whole entry): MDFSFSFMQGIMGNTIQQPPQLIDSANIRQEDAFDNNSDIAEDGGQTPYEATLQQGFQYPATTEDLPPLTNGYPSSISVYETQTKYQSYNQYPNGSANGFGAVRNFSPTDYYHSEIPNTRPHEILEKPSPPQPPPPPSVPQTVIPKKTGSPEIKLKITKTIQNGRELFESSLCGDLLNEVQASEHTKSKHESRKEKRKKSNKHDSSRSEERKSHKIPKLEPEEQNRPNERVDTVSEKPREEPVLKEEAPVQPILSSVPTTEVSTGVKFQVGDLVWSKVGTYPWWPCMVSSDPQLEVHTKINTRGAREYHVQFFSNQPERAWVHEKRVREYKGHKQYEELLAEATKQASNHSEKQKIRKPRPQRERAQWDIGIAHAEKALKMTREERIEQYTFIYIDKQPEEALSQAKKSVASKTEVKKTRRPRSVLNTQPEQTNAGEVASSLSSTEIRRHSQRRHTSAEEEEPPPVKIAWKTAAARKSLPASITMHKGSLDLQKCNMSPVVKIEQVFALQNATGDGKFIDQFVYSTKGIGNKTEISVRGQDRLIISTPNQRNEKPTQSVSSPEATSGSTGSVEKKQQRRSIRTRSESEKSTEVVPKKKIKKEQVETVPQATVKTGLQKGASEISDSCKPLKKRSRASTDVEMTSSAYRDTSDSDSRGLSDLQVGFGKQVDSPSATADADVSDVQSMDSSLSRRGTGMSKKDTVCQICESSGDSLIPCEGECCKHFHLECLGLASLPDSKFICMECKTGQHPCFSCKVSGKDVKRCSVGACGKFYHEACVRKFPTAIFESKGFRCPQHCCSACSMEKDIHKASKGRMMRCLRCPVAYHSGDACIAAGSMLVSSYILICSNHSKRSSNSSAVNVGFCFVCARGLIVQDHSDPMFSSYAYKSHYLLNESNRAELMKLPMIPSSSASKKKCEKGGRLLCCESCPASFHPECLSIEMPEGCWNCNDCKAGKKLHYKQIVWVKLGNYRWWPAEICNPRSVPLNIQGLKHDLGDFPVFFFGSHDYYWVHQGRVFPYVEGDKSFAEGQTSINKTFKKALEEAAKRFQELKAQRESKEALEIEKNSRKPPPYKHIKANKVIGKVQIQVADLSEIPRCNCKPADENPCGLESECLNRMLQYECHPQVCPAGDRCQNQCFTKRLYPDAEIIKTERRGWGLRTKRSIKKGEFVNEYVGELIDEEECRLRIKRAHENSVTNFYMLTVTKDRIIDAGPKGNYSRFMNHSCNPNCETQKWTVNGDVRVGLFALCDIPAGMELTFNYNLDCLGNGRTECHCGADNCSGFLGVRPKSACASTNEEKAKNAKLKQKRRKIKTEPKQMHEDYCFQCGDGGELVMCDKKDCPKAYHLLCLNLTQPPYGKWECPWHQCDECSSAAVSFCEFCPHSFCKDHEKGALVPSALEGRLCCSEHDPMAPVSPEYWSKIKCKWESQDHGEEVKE
Chain of von Hippel-Lindau disease tumor suppressor/Histone-lysine N-methyltransferase NSD3 (P40337 whole entry): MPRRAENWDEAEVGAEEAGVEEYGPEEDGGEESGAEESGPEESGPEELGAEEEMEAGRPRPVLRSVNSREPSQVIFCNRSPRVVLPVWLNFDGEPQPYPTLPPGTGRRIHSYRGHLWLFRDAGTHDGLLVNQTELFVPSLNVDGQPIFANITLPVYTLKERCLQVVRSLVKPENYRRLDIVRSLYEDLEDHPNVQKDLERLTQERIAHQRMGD

In another data set the test system is EOL1. Put plainly: Antiproliferative activity against human EOL1 cells assessed as cell growth inhibition. The format is functional, cell-based.
For data set [6], the target named is T1, Histone-lysine N-methyltransferase NSD2. Put plainly: Binding affinity to NSD2 (unknown origin) assessed as dissociation constant by SPR analysis. On the technique in general: Surface plasmon resonance follows binding to a sensor surface in real time, without labels.
Data set [7] is described as follows: Oral bioavailability in CD-1 mouse by LC-MS/MS analysis. The format is ADME, organism-based. The following applies: in vivo.
Data set [8] can be described thus: Oral bioavailability in Sprague-Dawley rat by LC-MS/MS analysis. Format: ADME, organism-based. The conditions noted are these: in vivo.

As to `Cc1cc(CN)cc(C)c1-c1ncn(C)c1-c1ccnc2cc(F)ccc12`, the IC50 in data set [1] came out at 13000 nM.

In [2], `O=C1O[C@@H](C(=O)N2CCN(Cc3nc4sc5c(c4c(=O)[nH]3)CCCC5)CC2)Cc2ccccc21` came in with an IC50 of 132 nM.

For the compound `CC(=O)N(C)C1CCN(c2cc(F)cc(NC(=O)c3cc4c(F)ccc(C)c4[nH]3)c2)C1` (centres undefined), in data set [3], the IC50 is 7 nM.

Take `Cc1ccc(F)c2cc(C(=O)Nc3cccc(N4CCC(N(C)C)CC4)c3)[nH]c12`: half-maximal inhibition in [3] (IC50) required 10 nM.

As for `NC(=S)c1cccc(-c2cn(C3CCN(S(=O)(=O)C(F)(F)F)CC3)c3cc(CNC(=O)C4CNC4)ccc23)c1`, the GI50 with MOLM-13, in the data set on KOPN-8 and in the data set with MV4-11 was 5000 nM throughout.

`Cc1cccnc1C(NC(=O)c1cc2c(F)ccc(C)c2[nH]1)C1CC1` (centres undefined) gave an IC50 in [3] of 600 nM.

For `CN1CC(C(=O)NCc2ccc3c(-c4cccc(C(N)=S)c4)cn(C4CCN(S(=O)(=O)C(F)(F)F)CC4)c3c2)C1`, the 50% growth inhibitory concentration (GI50) with MOLM-13, in the data set with KOPN-8 and in the data set with MV4-11 was 1800 nM each time.

In data set [3], `Cc1cccnc1C(NC(=O)c1cc2cccc(C)c2[nH]1)C1CC1` (centres undefined) came in with an IC50 of 3080 nM.

Turning to `O=C(CNc1cccc2c1C(=O)N(C1CCC(=O)NC1=O)C2=O)NCCCOc1ccc(NC(=O)c2ccc(CN(C(=O)c3ccc4c(c3)OCC(=O)N4)C3CC3)cc2)nc1` (centres undefined), the DC50 in [4] stood at 5200 nM.

For the compound `Cc1cc(CNCCCC(=O)NCCCCCCCCC(=O)N[C@H](C(=O)N2C[C@H](O)C[C@H]2C(=O)N[C@@H](C)c2ccc(-c3scnc3C)cc2)C(C)(C)C)cc(C)c1-c1ncn(C)c1-c1ccnc2cc(F)ccc12`, the DC50 in [5] was 4900 nM. Besides, the IC50 with EOL1 was 2300 nM.

For the compound `NCCCCCCNC(=O)c1ccc(NC(=O)c2ccc(CN(C(=O)c3ccc4c(c3)OCC(=O)N4)C3CC3)cc2)cc1`, the Kd in data set [6] came out at 24 nM. Moreover, in data set [4], the DC50 stood at 350 nM.

Turning to `Cc1cccc2cc(C(=O)NC3CCC(NC(=O)CCN)CC3)[nH]c12` (centres undefined), it took […] to reach half-maximal inhibition in data set [3] (IC50).

`Cc1cccc2cc(C(=O)Nc3ccccc3)[nH]c12` yielded an IC50 in data set [3] of 4240 nM.

In data set [3], `Cc1cccc2cc(C(=O)NC3CCC(N)CC3)[nH]c12` (centres undefined) returned an IC50 of 166000 nM.

`CCC(C)N[C@@H](CC[C@H](N)C(=O)O)C[C@H]1O[C@@H](n2cnc3c(N)ncnc32)[C@H](O)[C@@H]1O` (some centres undefined) showed an IC50 in data set [3] of 1800 nM.

In the case of `CC(=O)N1CCN([C@H]2CCC[C@@H](NC(=O)c3cc4c(F)ccc(C)c4[nH]3)C2)CC1` [EZM-0414], the bioavailability is over 100% in data set [7] and 97% in data set [8]. Also, the IC50 in data set [3] amounted to 18 nM.
